# Values of other authors as cited in patent US10563263B2, “Genetic polymorphisms associated with statin response and cardiovascular diseases, methods of detection and uses thereof” (CELERA CORPORATION, priority 2010, dated 2020).
# Tested on: major cardiovascular events
# Details: JUPITER Study, 17,802 individuals (Ridker et al. 2008); cited from earlier work
structure (smiles),measurement,value
CC(C)c1nc(N(C)S(C)(=O)=O)nc(-c2ccc(F)cc2)c1/C=C/[C@@H](O)C[C@@H](O)CC(=O)O [rosuvastatin],"incidence of major cardiovascular events (MI, stroke, arterial revascularization, hospitalization for unstable angina, death from cardiovascular causes)",significantly reduced the incidence of major cardiovascular events
